Source: US20250296953A1, “3,4-THIAZOLO-STEROIDS AND METHODS OF MAKING AND USING THE SAME” (Arkansas State University - Jonesboro, priority 2018, published 2025)
Like-named read-outs stand apart in the source and are kept apart here.

Columns and labels:
[1] = test system: SR; assay: NCI 60 five dose screen
[2] = test system: 60 different human tumor cell lines
[3] = 786-0 (Renal Cancer), five dose
[4] = A549/ATCC (Non-small Cell Lung Cancer), five dose
[5] = BT-549 (Breast Cancer), five dose
[6] = CAKI-1 (Renal Cancer), five dose
[7] = COLO 205 (Colon Cancer), five dose
[8] = DU-145 (Prostate Cancer), five dose
[9] = EKVX (Non-small Cell Lung Cancer), five dose
[10] = HCC-2998 (Colon Cancer), five dose
[11] = HCT-15 (Colon Cancer), five dose
[12] = HCT-116 (Colon Cancer), five dose
[13] = HL-60(TB) (Leukemia), five dose
[14] = HOP-62 (Non-small Cell Lung Cancer), five dose
[15] = HOP-92 (Non-small Cell Lung Cancer), five dose
[16] = HS 578T (Breast Cancer), five dose
[17] = IGROV1 (Ovarian Cancer), five dose
[18] = MCF7 (Breast Cancer), five dose
[19] = MDA-MB-231/ATCC (Breast Cancer), five dose
[20] = MDA-MB-435 (Melanoma), five dose
[21] = MDA-MB-468 (Breast Cancer), five dose
[22] = NCI-H23 (Non-small Cell Lung Cancer), five dose
[23] = NCI-H226 (Non-small Cell Lung Cancer), five dose
[24] = NCI-H322M (Non-small Cell Lung Cancer), five dose
[25] = NCI-H460 (Non-small Cell Lung Cancer), five dose
[26] = NCI-H522 (Non-small Cell Lung Cancer), five dose
[27] = NCI/ADR-RES (Ovarian Cancer), five dose
[28] = OVCAR-3 (Ovarian Cancer), five dose
[29] = OVCAR-4 (Ovarian Cancer), five dose
[30] = OVCAR-5 (Ovarian Cancer), five dose
[31] = OVCAR-8 (Ovarian Cancer), five dose
[32] = PC-3 (Prostate Cancer), five dose
[33] = RXF 393 (Renal Cancer), five dose
[34] = SK-MEL-28 (Melanoma), five dose
[35] = SK-OV-3 (Ovarian Cancer), five dose
[36] = SN12C (Renal Cancer), five dose
[37] = SW-620 (Colon Cancer), five dose
[38] = T-47D (Breast Cancer), five dose
[39] = TK-10 (Renal Cancer), five dose
[40] = UO-31 (Renal Cancer), five dose

In the case of “(1S,2R,13R,14S,18S)-7-(3-fluoroanilino)-2,18-dimethyl-6-thia-8-azapentacyclo[11.7.0.02,10.05,9.014,18]icosa-5(9),7,10-trien-17-one [IIa.8]”, the GI50 ([1]; SR (Leukemia), five dose) was 859 nM, the “50% growth inhibition (GI50)” value ([1]; leukemia cell line SR) was “submicromolar” and the CC50 ([1]; read-out: LC50, SR (Leukemia), five dose) was over 100 µM. For the same substance, the CC50 [2] was over 100 µM, the GI50 [2, 3] was 1430 nM and the TGI [2, 3] was 2.83E−6. For the same substance, the GI50 ([2]; A498 (Renal Cancer), five dose) was 2160 nM, the TGI ([2]; A498 (Renal Cancer), five dose) was 6.77E−6 and the GI50 [2, 4] was 2580 nM. It also gave a TGI [2, 4] of 7.50E−6, a GI50 ([2]; ACHN (Renal Cancer), five dose) of 1780 nM and a TGI ([2]; ACHN (Renal Cancer), five dose) of 3.24E−6. For the same substance, the GI50 [2, 5] was 1540 nM, the TGI [2, 5] was 3.62E−6 and the GI50 [2, 6] was 1990 nM. It also gave a TGI [2, 6] of 5.73E−6, a GI50 ([2]; CCRF-CEM (Leukemia), five dose) of 1900 nM and a TGI ([2]; CCRF-CEM (Leukemia), five dose) of over 1.00E−4. For the same substance, the GI50 [2, 7] was 2160 nM, the TGI [2, 7] was 4.81E−6 and the GI50 [2, 8] was 1930 nM. It also gave a TGI [2, 8] of 4.87E−6, a GI50 [2, 9] of 2500 nM and a TGI [2, 9] of 1.85E−5. The GI50 [2, 10] was 3550 nM, the TGI [2, 10] was 1.46E−5 and the GI50 [2, 11] was 1580 nM. The TGI [2, 11] was 4.08E−6, the GI50 [2, 12] was 1590 nM and the TGI [2, 12] was 3.24E−6. The GI50 [2, 13] was 2730 nM, the TGI [2, 13] was 8.00E−6 and the GI50 [2, 14] was 2070 nM. The TGI [2, 14] was 5.34E−6, the GI50 [2, 15] was 2250 nM and the TGI [2, 15] was 4.17E−6. The GI50 [2, 16] was 3140 nM, the TGI [2, 16] was over 1.00E−4 and the GI50 ([2]; HT29 (Colon Cancer), five dose) was 1490 nM. The TGI ([2]; HT29 (Colon Cancer), five dose) was 3.51E−6, the GI50 [2, 17] was 1890 nM and the TGI [2, 17] was 3.83E−6. It also gave a GI50 ([2]; K-562 (Leukemia), five dose) of 1860 nM, a GI50 ([2]; KM12 (Colon Cancer), five dose) of 3000 nM and a TGI ([2]; KM12 (Colon Cancer), five dose) of 1.24E−5. It also gave a GI50 ([2]; LOX IMVI (Melanoma), five dose) of 1670 nM, a TGI ([2]; LOX IMVI (Melanoma), five dose) of 3.21E−6 and a GI50 ([2]; M14 (Melanoma), five dose) of 2360 nM. The TGI ([2]; M14 (Melanoma), five dose) was 7.23E−6, the GI50 ([2]; MALME-3M (Melanoma), five dose) was 1940 nM and the TGI ([2]; MALME-3M (Melanoma), five dose) was 5.04E−6. The GI50 [2, 18] was 1370 nM, the TGI [2, 18] was 3.28E−6 and the GI50 [2, 19] was 2110 nM. The TGI [2, 19] was 4.59E−6, the GI50 [2, 20] was 2740 nM and the TGI [2, 20] was 1.31E−5. For the same substance, the GI50 [2, 21] was 2010 nM, the TGI [2, 21] was 4.18E−6 and the GI50 ([2]; MOLT-4 (Leukemia), five dose) was 1680 nM. It also gave a TGI ([2]; MOLT-4 (Leukemia), five dose) of 2.83E−5, a GI50 [2, 22] of 2270 nM and a TGI [2, 22] of 9.08E−6. It also gave a GI50 [2, 23] of 2350 nM, a TGI [2, 23] of 5.70E−6 and a GI50 [2, 24] of 3600 nM. The TGI [2, 24] was 2.89E−6, the GI50 [2, 25] was 2520 nM and the TGI [2, 25] was 5.58E−6. The GI50 [2, 26] was 1630 nM, the TGI [2, 26] was 3.06E−6 and the GI50 [2, 27] was 2810 nM. For the same substance, the TGI [2, 27] was 1.72E−5, the GI50 [2, 28] was 1720 nM and the TGI [2, 28] was 3.30E−6. It also gave a GI50 [2, 29] of 2710 nM, a TGI [2, 29] of over 1.00E−4 and a GI50 [2, 30] of 2730 nM. For the same substance, the TGI [2, 30] was 1.80E−5, the GI50 [2, 31] was 2790 nM and the TGI [2, 31] was 7.98E−6. It also gave a GI50 [2, 32] of 1880 nM, a TGI [2, 32] of 3.87E−6 and a GI50 [2, 33] of 1450 nM. The TGI [2, 33] was 3.25E−6, the GI50 ([2]; SF-268 (CNS Cancer), five dose) was 3090 nM and the TGI ([2]; SF-268 (CNS Cancer), five dose) was 1.11E−5. The GI50 ([2]; SK-MEL-2 (Melanoma), five dose) was 1860 nM, the TGI ([2]; SK-MEL-2 (Melanoma), five dose) was 5.19E−5 and the GI50 ([2]; SK-MEL-5 (Melanoma), five dose) was 2020 nM. The TGI ([2]; SK-MEL-5 (Melanoma), five dose) was 4.32E−6, the GI50 [2, 34] was 1520 nM and the TGI [2, 34] was 4.27E−6. The GI50 [2, 35] was 2330 nM, the TGI [2, 35] was 6.10E−6 and the GI50 [2, 36] was 2360 nM. For the same substance, the TGI [2, 36] was 6.02E−6, the GI50 ([2]; SNB-19 (CNS Cancer), five dose) was 2330 nM and the TGI ([2]; SNB-19 (CNS Cancer), five dose) was 5.69E−6. For the same substance, the GI50 ([2]; SNB-75 (CNS Cancer), five dose) was 1520 nM, the TGI ([2]; SNB-75 (CNS Cancer), five dose) was 4.94E−6 and the GI50 [2, 37] was 2330 nM. It also gave a TGI [2, 37] of 4.99E−6, a GI50 [2, 38] of 2220 nM and a TGI [2, 38] of 6.95E−6. The GI50 [2, 39] was 1970 nM, the TGI [2, 39] was 4.15E−6 and the GI50 ([2]; U251 (CNS Cancer), five dose) was 1590 nM. For the same substance, the TGI ([2]; U251 (CNS Cancer), five dose) was 3.68E−6, the GI50 ([2]; UACC-62 (Melanoma), five dose) was 1540 nM and the TGI ([2]; UACC-62 (Melanoma), five dose) was 3.12E−6. The GI50 ([2]; UACC-257 (Melanoma), five dose) was 5470 nM, the TGI ([2]; UACC-257 (Melanoma), five dose) was 6.45E−5 and the GI50 [2, 40] was 1670 nM. The TGI [2, 40] was 3.59E−6, the GI50 ([2]; four of six central nervous system (CNS) cell lines) was under 2000 nM and the CC50 ([2]; read-out: LC50, 786-0 (Renal Cancer), five dose) was 5.61 µM.
